Values of other authors as cited in article PMC9516332 (Frontiers in Oncology, 2022).
Read-outs that look alike come from different tables or passages of the source.

Tests used:
Settings in all cases: cited from earlier work
[1] = biological target: panel of 255 wild-type kinases (Homo sapiens, UniProt Q9Y3S1)
[2] = biological target: panel of 255 wild-type kinases (Homo sapiens, UniProt P42685)
[3] = biological target: panel of 255 wild-type kinases (Homo sapiens, UniProt Q9NQU5)
[4] = biological target: T1, panel of 255 wild-type kinases (Homo sapiens, UniProt P41743)
T1 sequence (P41743 1-596): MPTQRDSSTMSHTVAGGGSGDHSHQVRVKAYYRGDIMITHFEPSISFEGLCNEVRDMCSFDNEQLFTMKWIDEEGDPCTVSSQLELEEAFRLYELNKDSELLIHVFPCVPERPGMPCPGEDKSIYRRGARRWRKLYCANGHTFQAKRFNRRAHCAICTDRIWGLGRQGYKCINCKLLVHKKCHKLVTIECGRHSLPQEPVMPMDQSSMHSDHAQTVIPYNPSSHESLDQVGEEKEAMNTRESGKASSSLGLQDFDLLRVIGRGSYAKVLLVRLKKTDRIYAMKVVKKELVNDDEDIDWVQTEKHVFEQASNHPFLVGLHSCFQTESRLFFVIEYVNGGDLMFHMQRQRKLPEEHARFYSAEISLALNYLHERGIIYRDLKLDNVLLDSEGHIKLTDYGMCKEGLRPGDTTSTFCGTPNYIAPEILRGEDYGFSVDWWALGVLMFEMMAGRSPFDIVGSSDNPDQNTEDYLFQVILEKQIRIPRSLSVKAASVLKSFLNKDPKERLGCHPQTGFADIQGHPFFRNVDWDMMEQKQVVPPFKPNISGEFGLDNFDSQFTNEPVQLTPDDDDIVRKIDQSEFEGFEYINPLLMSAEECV

[5] = biological target: T2, panel of 255 wild-type kinases (Homo sapiens, UniProt Q9H093)
T2 sequence (Q9H093 1-628): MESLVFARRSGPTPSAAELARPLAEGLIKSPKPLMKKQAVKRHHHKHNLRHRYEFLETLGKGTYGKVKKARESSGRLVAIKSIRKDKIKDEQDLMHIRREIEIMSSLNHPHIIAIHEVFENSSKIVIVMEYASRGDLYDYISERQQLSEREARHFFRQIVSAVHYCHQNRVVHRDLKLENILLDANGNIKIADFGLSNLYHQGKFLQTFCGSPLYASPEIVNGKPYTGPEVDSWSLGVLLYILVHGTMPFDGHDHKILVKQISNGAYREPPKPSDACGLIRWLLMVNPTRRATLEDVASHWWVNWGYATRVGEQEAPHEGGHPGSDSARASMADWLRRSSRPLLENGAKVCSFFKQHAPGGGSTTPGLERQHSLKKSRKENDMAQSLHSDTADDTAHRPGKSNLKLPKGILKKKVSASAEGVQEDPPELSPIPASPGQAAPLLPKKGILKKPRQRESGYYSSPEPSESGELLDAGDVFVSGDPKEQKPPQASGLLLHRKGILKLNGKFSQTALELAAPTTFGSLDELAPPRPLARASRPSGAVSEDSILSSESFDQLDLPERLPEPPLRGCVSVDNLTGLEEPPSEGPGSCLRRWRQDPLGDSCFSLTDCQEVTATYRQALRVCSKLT

[6] = biological target: T3, panel of 255 wild-type kinases (Homo sapiens, UniProt Q8TD19)
T3 sequence (Q8TD19 1-979): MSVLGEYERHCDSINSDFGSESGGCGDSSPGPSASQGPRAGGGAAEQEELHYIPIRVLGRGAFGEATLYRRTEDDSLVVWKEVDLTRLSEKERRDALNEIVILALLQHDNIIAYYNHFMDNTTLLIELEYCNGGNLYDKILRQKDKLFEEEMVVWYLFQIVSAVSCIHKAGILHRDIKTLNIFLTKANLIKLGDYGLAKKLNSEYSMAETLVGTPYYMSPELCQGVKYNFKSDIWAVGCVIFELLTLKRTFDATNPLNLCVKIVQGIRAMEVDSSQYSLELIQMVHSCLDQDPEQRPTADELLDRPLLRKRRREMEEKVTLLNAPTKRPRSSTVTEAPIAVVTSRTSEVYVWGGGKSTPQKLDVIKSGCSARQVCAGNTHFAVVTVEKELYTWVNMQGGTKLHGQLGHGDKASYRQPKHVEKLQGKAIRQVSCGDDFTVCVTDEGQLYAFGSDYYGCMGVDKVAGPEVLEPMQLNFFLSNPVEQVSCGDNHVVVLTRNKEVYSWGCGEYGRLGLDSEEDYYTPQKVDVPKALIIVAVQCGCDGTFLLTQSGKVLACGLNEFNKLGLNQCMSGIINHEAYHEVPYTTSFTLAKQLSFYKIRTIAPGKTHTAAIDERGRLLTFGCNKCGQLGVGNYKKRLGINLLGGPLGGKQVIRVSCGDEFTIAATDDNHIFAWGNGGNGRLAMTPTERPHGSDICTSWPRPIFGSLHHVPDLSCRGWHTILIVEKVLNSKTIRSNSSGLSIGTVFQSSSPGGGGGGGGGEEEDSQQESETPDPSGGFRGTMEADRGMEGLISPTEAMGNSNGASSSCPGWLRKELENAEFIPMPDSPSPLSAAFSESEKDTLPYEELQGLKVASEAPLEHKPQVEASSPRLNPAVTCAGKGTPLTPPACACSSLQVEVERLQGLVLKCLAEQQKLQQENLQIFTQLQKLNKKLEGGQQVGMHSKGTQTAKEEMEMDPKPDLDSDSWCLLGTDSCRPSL

[7] = biological target: panel of 255 wild-type kinases (Homo sapiens, UniProt Q8TDX7)
[8] = kinase WNK2, 1 µmol/L single concentration, ref DOI: 10.1158/1535-7163.MCT-18-0877
[9] = kinase FRK, 1 µmol/L single concentration, ref DOI: 10.1158/1535-7163.MCT-18-0877
[10] = PAK6, 1 µmol/L single concentration, ref DOI: 10.1158/1535-7163.MCT-18-0877
[11] = kinase PKCι, 1 µmol/L single concentration, ref DOI: 10.1158/1535-7163.MCT-18-0877
[12] = NuaK2, 1 µmol/L single concentration, ref DOI: 10.1158/1535-7163.MCT-18-0877
[13] = NEK9, 1 µmol/L single concentration, ref DOI: 10.1158/1535-7163.MCT-18-0877
[14] = NEK7, 1 µmol/L single concentration, ref DOI: 10.1158/1535-7163.MCT-18-0877
[15] = kinase WNK2, 1 µmol/L single concentration, ref DOI: 10.1371/journal.pone.0092146
[16] = kinase FRK, 1 µmol/L single concentration, ref DOI: 10.1371/journal.pone.0092146
[17] = PAK6, 1 µmol/L single concentration, ref DOI: 10.1371/journal.pone.0092146
[18] = kinase PKCι, 1 µmol/L single concentration, ref DOI: 10.1371/journal.pone.0092146
[19] = NuaK2, 1 µmol/L single concentration, ref DOI: 10.1371/journal.pone.0092146
[20] = NEK9, 1 µmol/L single concentration, ref DOI: 10.1371/journal.pone.0092146
[21] = NEK7, 1 µmol/L single concentration, ref DOI: 10.1371/journal.pone.0092146

| SMILES | %-inhibition at 1 µmol/L, WNK2 [1, 8] [%] | %-inhibition at 1 µmol/L, FRK [2, 9] [%] | %-inhibition, PAK6 [3, 10] [%] | %-inhibition at 1 µmol/L, PKCι [4, 11] [%] | %-inhibition, NuaK2 [5, 12] [%] | %-inhibition, NEK9 [6, 13] [%] | %-inhibition, NEK7 [7, 14] [%] | %-inhibition at 1 µmol/L, WNK2 [1, 15] [%] | %-inhibition at 1 µmol/L, FRK [2, 16] [%] | %-inhibition, PAK6 [3, 17] [%] | %-inhibition at 1 µmol/L, PKCι [4, 18] [%] | %-inhibition, NuaK2 [5, 19] [%] | %-inhibition, NEK9 [6, 20] [%] | %-inhibition, NEK7 [7, 21] [%] | further results |
| --- | --- | --- | --- | --- | --- | --- | --- | --- | --- | --- | --- | --- | --- | --- | --- |
| CC#CC(=O)N1CCC[C@H]1c1nc(-c2ccc(C(=O)Nc3ccccn3)cc2)c2c(N)nccn12 [acalabrutinib] | 0.787 | 47 | -9 | -8 | 3 | -3.18 | -11 | – | – | – | – | – | – | – | – |
| CCc1cc2c(cc1N1CCC(N3CCOCC3)CC1)C(C)(C)c1[nH]c3cc(C#N)ccc3c1C2=O [alectinib] | 1.16 | 53 | -8 | 11 | -1.06 | 0.368 | -1.33 | – | – | – | – | – | – | – | – |
| COc1cc(N2CCC(N3CCN(C)CC3)CC2)ccc1Nc1ncc(Cl)c(Nc2ccccc2P(C)(C)=O)n1 [brigatinib] | – | – | – | – | – | – | – | – | – | – | – | – | – | – | %-inhibition at 1 µmol/L, WNK2 [1]: 0.119%; %-inhibition at 1 µmol/L, FRK [2]: 104%; %-inhibition, PAK6 [3]: 26%; %-inhibition at 1 µmol/L, PKCι [4]: -38%; %-inhibition, NuaK2 [5]: 98%; %-inhibition, NEK9 [6]: 70%; %-inhibition, NEK7 [7]: 1.23% |
| Cc1cc(Nc2ncc(Cl)c(Nc3ccccc3S(=O)(=O)C(C)C)n2)c(OC(C)C)cc1C1CCNCC1 [ceritinib] | -1.28 | 85 | 18 | 25 | 43 | 9 | -0.251 | – | – | – | – | – | – | – | – |
| O=C(c1ccc(F)c(F)c1Nc1ccc(I)cc1F)N1CC(O)([C@@H]2CCCCN2)C1 [cobimetinib] | 5 | 0.866 | 2 | 2.45 | -10 | -2.32 | 1.68 | – | – | – | – | – | – | – | – |
| C[C@@H](Oc1cc(-c2cnn(C3CCNCC3)c2)cnc1N)c1c(Cl)ccc(F)c1Cl [crizotinib] | – | – | – | – | – | – | – | -4 | 26 | 3 | -5 | 87 | 57 | -5.3 | – |
| CC(C)(C)c1nc(-c2cccc(NS(=O)(=O)c3c(F)cccc3F)c2F)c(-c2ccnc(N)n2)s1 [dabrafenib] | – | – | – | – | – | – | – | 0.686 | 81 | 9 | 14 | 4.53 | 101 | 2.28 | – |
| C=CC(=O)N1CCC[C@@H](n2nc(-c3ccc(Oc4ccccc4)cc3)c3c(N)ncnc32)C1 [ibrutinib] | 5.67 | 100 | 9 | 2.23 | 6.37 | -3.28 | 0.69 | – | – | – | – | – | – | – | – |
| CO[C@@H]1[C@H](N(C)C(=O)c2ccccc2)C[C@H]2O[C@]1(C)n1c3ccccc3c3c4c(c5c6ccccc6n2c5c31)C(=O)NC4 [midostaurin] | 0.935 | 70 | 52 | 3 | 99 | 48 | -11 | – | – | – | – | – | – | – | – |
| C=CC(=O)Nc1cc(Nc2nccc(-c3cn(C)c4ccccc34)n2)c(OC)cc1N(C)CCN(C)C [osimertinib] | 4.6 | 34 | 7 | 20 | 4 | 9 | 0.703 | – | – | – | – | – | – | – | – |
| CC(=O)Nc1cccc(-n2c(=O)n(C3CC3)c(=O)c3c(Nc4ccc(I)cc4F)n(C)c(=O)c(C)c32)c1 [trametinib] | – | – | – | – | – | – | – | 1.45 | -3 | 8 | 9 | 9 | -3 | 1.63 | – |
| CCCS(=O)(=O)Nc1ccc(F)c(C(=O)c2c[nH]c3ncc(-c4ccc(Cl)cc4)cc23)c1F [vemurafenib] | – | – | – | – | – | – | – | 13 | 62 | -7 | -16 | 4.36 | -2.2 | -3.56 | – |
